Where a name gives a salt, the structure may show the parent alone.
Biological target: T1, hCaV2.2 (Homo sapiens, UniProt Q00975)
T1 construct: expressed in transfected cells; plasmids pCIN5-hCaV2.2, pCIH-hCaV β3, pCIP-α2δ1
Test: hCaV2.2 assay, IonWorks planar array electrophysiology in stably transfected HEK293 cells
Format: cell-based
Settings: current elicited by the 1st depolarising pulse inhibited by 50%; HEK293 cells expressing human CaV2.2 alpha/beta3/alpha2delta1; read-out: mean pIC50 (tonic pIC50) (converted)
Protocol: Compounds of the invention may be tested for in vitro biological activity in the hCaV2.2 assay in accordance with the following studies:
Stable cell lines expressing the human CaV2.2 α (als) subunit, along with the human […] and α2δ1 auxiliary subunits were created following sequential transfection and selection of human embryonic kidney (HEK293) cells. HEK293 cells were cultured in Dulbecco's modified Eagles media/F12 media (Invitrogen, Cat #041-95750V) containing 10% foetal bovine serum, with added L-glutamine (2 mM; Invitrogen, Cat #25030-024) and non-essential amino acids (5%; Invitrogen, Cat #11140-035). Initially HEK293 cells were transfected with two plasmid vectors for expression of the hCaV2.2 α subunit (pCIN5-hCaV2.2 which carries a neomycin resistance marker) and the hCaV β3 subunit (pCIH-hCaV β3 which carries a hygromycin resistance marker). Clonal cell lines were isolated following selection in media supplemented with 0.4 mg ml^−1 Geneticin G418 (Invitrogen, Cat #10131-027) and 0.1 mg ml^1 hygromycin (Invitrogen, Cat #10687-010). These clonal cell lines were assessed for Cav2.2α/β3-mediated current expression using the IonWorks planar array electrophysiology technology (described below). A clonal line was identified that gave a reasonable level of functional Cav2.2α/β3 current expression. This cell line was transfected with a plasmid vector for expression of the human […] subunit (pCIP-α2δ1 which carries a puromycin resistance marker) and clonal cell lines isolated following selection in media containing 0.62 μg ml^−1 puromycin (Sigma, Cat #P-7255), in addition to 0.4 mg ml^−1 Geneticin G418 and 0.1 mg ml^−1 hygromycin. Several cell lines were identified that gave robust levels of Cav2.2α/β3/α2δ1-mediated current expression and one of these was selected for compound profiling. Expression of all three subunits within this cell line was continuously maintained by the inclusion of G418 (0.4 mg ml^−1), hygromycin (0.1 mg ml^−1) and puromycin (0.62 μg ml^−1). Cells were maintained at 37° C. in a humidified environment containing 5% CO2 in air. Cells were liberated from the T175 culture flasks for passage and harvesting using TrpLE (Invitrogen, Cat #12604-013).
Cells were grown to 30-60% confluence in T175 flasks and maintained at 30° C. for 24 hrs prior to recording. Cells were lifted by removing the growth media, washing with Ca^2+ free PBS (Invitrogen, Cat #14190-094) and incubating with 3 ml of warmed (37° C.) TrpLE (Invitrogen, Cat #12604-013) for 6 minutes. Lifted cells were suspended in 10 ml of extracellular buffer. Cell suspension was then placed into a 15 ml tube and centrifuged for 2 minutes at 700 rpm. After centrifugation, the supernatant was removed and the cell pellet was resuspended in 4.5 ml of extracellular solution.
Currents were recorded at room temperature (21-23° C.) using the IonWorks planar array electrophysiology technology (Molecular Devices Corp.). Stimulation protocols and data acquisition were carried out using a microcomputer (Dell Pentium 4). In order to determine planar electrode hole resistances (Rp), a 10 mV, 160 ms potential difference was applied across each hole. These measurements were performed before cell addition. After cell addition a seal test was performed prior to antibiotic (amphotericin) circulation to achieve intracellular access. Leak subtraction was conducted in all experiments by applying a 160 ms hyperpolarizing (10 mV) prepulse 200 ms before the test pulses to measure leak conductance. Test pulses stepping from the holding potential (VH) of −90 mV to +10 mV were applied for 20 ms and repeated 10 times at a frequency of 10 Hz. In all experiments, the test pulse protocol was performed in the absence (pre-read) and presence (post-read) of a compound. Pre- and post-reads were separated by a compound addition followed by a 3-3.5 min incubation.
The intracellular solution contained the following (in mM): K-gluconate 120, KCl 20 mM, MgCl2 5, EGTA 5, HEPES 10, adjusted to pH 7.3. […]

T1 sequence (Q00975 whole entry): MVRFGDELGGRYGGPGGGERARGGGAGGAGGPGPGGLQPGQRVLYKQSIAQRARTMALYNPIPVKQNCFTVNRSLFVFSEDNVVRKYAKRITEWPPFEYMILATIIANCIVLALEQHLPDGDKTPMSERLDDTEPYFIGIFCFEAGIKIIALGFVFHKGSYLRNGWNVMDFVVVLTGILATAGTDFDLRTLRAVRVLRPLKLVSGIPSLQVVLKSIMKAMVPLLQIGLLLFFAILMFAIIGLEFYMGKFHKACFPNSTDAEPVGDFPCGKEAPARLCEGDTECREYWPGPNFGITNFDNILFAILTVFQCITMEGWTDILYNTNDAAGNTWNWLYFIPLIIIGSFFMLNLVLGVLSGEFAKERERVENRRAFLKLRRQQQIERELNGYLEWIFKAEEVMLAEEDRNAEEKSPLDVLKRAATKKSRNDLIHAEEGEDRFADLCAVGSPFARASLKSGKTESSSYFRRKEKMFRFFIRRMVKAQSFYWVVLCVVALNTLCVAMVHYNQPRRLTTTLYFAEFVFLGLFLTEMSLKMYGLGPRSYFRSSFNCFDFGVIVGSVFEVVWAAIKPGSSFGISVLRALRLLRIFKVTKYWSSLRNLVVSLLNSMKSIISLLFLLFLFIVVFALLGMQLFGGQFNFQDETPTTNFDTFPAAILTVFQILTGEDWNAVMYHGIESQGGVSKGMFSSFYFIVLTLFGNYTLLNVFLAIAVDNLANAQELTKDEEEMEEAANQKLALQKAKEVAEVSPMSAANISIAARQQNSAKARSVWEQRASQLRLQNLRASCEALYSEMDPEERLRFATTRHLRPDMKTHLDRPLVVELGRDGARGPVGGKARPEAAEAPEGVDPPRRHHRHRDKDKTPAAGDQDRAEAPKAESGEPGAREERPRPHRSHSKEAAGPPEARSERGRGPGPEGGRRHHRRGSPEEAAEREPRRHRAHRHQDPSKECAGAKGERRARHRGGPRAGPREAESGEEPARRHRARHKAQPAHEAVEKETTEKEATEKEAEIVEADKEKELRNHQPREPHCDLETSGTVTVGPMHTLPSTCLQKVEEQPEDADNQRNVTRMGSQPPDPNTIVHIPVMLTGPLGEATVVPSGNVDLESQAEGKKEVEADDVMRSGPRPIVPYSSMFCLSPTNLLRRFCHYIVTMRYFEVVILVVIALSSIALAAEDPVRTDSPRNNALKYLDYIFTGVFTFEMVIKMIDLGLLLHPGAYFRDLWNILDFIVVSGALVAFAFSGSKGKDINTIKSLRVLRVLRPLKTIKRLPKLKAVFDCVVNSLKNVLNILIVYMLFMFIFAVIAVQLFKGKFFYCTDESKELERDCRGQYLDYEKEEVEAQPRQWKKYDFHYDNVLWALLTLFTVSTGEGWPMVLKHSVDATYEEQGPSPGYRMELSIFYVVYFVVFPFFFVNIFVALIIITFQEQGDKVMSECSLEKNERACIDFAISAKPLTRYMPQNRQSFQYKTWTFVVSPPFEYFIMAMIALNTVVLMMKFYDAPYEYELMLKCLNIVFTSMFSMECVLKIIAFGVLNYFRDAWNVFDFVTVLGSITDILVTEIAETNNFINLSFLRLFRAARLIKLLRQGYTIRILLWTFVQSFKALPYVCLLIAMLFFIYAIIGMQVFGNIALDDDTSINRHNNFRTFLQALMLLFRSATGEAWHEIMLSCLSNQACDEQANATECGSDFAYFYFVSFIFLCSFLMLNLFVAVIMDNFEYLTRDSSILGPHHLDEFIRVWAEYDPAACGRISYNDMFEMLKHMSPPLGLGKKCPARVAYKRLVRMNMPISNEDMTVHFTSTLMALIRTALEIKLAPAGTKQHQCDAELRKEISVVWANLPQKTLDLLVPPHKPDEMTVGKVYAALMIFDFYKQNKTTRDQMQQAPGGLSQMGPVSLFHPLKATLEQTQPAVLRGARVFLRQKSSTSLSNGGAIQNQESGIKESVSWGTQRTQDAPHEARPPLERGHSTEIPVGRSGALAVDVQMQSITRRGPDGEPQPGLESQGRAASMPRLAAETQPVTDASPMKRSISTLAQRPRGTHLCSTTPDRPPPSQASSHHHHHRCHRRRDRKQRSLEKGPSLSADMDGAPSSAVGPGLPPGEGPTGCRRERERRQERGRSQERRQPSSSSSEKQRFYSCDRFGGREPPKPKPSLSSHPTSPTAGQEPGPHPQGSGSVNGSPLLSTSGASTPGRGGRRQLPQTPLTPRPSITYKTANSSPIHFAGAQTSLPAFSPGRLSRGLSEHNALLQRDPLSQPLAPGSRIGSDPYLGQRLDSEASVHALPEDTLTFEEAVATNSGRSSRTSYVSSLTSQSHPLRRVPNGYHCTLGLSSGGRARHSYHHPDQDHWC

Row | Compound | IC50 [µM]
1 | Cc1cc(C#N)ccc1S(=O)(=O)N1CCN(C(=O)c2ccc(N3CCC3)nc2C)[C@@H](C)C1 [Example 40, 4-[((38)-4-{[6-(1-Azetidinyl)-2-methyl-3-pyridinyl]carbonyl}-3-methyl-1-piperazinyl)sulfonyl]-3-methylbenzonitrile hydrochloride] | ≥ 31.6
2 | CNc1ccc(C(=O)N2CCN(S(=O)(=O)c3ccc(C#N)cc3C)C[C@@H]2C)c(C)n1 [Example 38, 3-Methyl-4-[((3S)-3-methyl-4-{[2-methyl-6-(methylamino)-3-pyridinyl]carbonyl}-1-piperazinyl)sulfonyl]benzonitrile] | ≥ 31.6
3 | Cc1ccc(C(=O)N2CCN(S(=O)(=O)c3ccc(C#N)cc3)C[C@@H]2C)cn1 [Example 72, 4-({(3S)-3-methyl-4-[(6-methyl-3-pyridinyl)carbonyl]-1-piperazinyl}sulfonyl)benzo-nitrile] | ≥ 31.6
4 | Cc1cc(C)c(C(=O)N2CCN(S(=O)(=O)c3ccc(C#N)cc3C)C[C@@H]2C)cn1 [Example 68, 4-({(3S)-4-[(4,6-dimethyl-3-pyridinyl)carbonyl]-3-methyl-1-piperazinyl}sulfonyl)-3-methylbenzonitrile] | ≥ 31.6
5 | Cc1ccc(C(=O)N2CCN(S(=O)(=O)c3ccc(OC(F)F)cc3)CC2)cn1 [Example 73, 1-({4-[(difluoromethyl)oxy]phenyl}sulfonyl)-4-[(6-methyl-3-pyridinyl)carbonyl]piperazine] | ≥ 31.6
6 | Cc1cc(C#N)ccc1S(=O)(=O)N1CCN(C(=O)c2ccc(N(C)C)nc2C)[C@@H](C)C1 [Example 30, 4-[((3S)-4-{[6-(Dimethylamino)-2-methyl-3-pyridinyl]carbonyl}-3-methyl-1-piperazinyl)sulfonyl]-3-methylbenzonitrile hydrochloride] | ≥ 10
7 | Cc1ccc(C(=O)N2CCN(S(=O)(=O)c3ccc(OC(F)F)cc3)C[C@@H]2C)cn1 [Example 22, (2S)-4-({4-[(Difluoromethyl)oxy]phenyl}sulfonyl)-2-methyl-1-[(6-methyl-3-pyridinyl)carbonyl]piperazine] | ≥ 31.6
8 | CCc1ccc(C(=O)N2CCN(S(=O)(=O)c3ccc(C#N)cc3C)C[C@@H]2C)cn1 [Example 53, 4-({(3S)-4-[(6-ethyl-3-pyridinyl)carbonyl]-3-methyl-1-piperazinyl}sulfonyl)-3-methylbenzonitrile hydrochloride] | ≥ 31.6
9 | Cc1ccc(C(=O)N2CCN(S(=O)(=O)c3ccc(C#N)cc3C)C[C@H]2C)cn1 [Example 63, 3-methyl-4-({(3R)-3-methyl-4-[(6-methyl-3-pyridinyl)carbonyl]-1-piperazinyl}sulfonyl)benzo-nitrile] | ≥ 31.6
10 | Cc1cc(C#N)ccc1S(=O)(=O)N1CCN(C(=O)c2ccc(N3CCOCC3)nc2C)[C@@H](C)C1 [Example 35, 3-Methyl-4-[((3S)-3-methyl-4-{[2-methyl-6-(4-morpholinyl)-3-pyridinyl]carbonyl}-1-piperazinyl)sulfonyl]benzonitrile hydrochloride] | ≥ 10
11 | Cc1ccc(C(=O)N2CCN(S(=O)(=O)c3ccc(OC(F)(F)F)cc3)CC2)cn1 [Example 23, 1-[(6-Methyl-3-pyridinyl)carbonyl]-4-({4-[(trifluoromethyl)oxy]phenyl}sulfonyl)piperazine] | ≥ 31.6
12 | O=C(c1ccc(NC2CCOCC2)nc1)N1CCN(S(=O)(=O)c2ccc(C(F)(F)F)cc2)CC1 [Example 70, N-(tetrahydro-2H-pyran-4-yl)-5-[(4-{[4-(trifluoromethyl)phenyl]sulfon-yl}-1-piperazinyl)carbonyl]-2-pyridinamine] | ≥ 31.6

Results, then the compound that gave them:

Row | IC50 [µM] | Compound
13 | ≥ 31.6 | Cc1ccc(C(F)(F)F)cc1S(=O)(=O)N1CCN(C(=O)c2cccnc2C)CC1 [Example 62, 1-[(2-methyl-3-pyridinyl)carbonyl]-4-{[2-methyl-5-(trifluoromethyl)phenyl]sulfon-yl}piperazine]
14 | ≥ 31.6 | Cc1ccc(C(=O)N2CCN(S(=O)(=O)c3ccc(OC(F)(F)F)cc3)C[C@@H]2C)cn1 [Example 21, (2S)-2-Methyl-1-[(6-methyl-3-pyridinyl)carbonyl]-4-({4-[(trifluoromethyl)oxy]phenyl}sulfonyl)piperazine]
15 | ≥ 31.6 | COc1ccc(C(=O)N2CCN(S(=O)(=O)c3ccc(C(F)(F)F)cc3)C[C@@H]2C)cn1 [Example 14, (2S)-2-Methyl-1-{[6-(methyloxy)-3-pyridinyl]carbonyl}-4-{[4-(trifluoromethyl)phenyl]sulfonyl}piperazine]
16 | ≥ 10 | C[C@H]1CN(S(=O)(=O)c2ccc(C(F)(F)F)cc2)CCN1C(=O)c1cncc(Br)c1 [Example 28, (2S)-1-[(5-Bromo-3-pyridinyl)carbonyl]-2-methyl-4-{[4-(trifluoromethyl)phenyl]sulfonyl}piperazine]
17 | ≥ 10 | CCN(CC)c1ccc(C(=O)N2CCN(S(=O)(=O)c3ccc(C(F)(F)F)cc3)CC2)cn1 [Example 56, N,N-diethyl-5-[(4-{[4-(trifluoromethyl)phenyl]sulfonyl}-1-piperazinyl)carbonyl]-2-pyridinamine]
18 | ≥ 31.6 | Cc1ccc(C(=O)N2CCN(S(=O)(=O)c3ccc(Cl)cc3)[C@@H](C)C2)cn1 [Example 8, (2S)-1-[(4-Chlorophenyl)sulfonyl]-2-methyl-4-[(6-methyl-3-pyridinyl)carbonyl]piperazine]
19 | ≥ 31.6 | Cc1ccc(C(=O)N2CCN(S(=O)(=O)c3ccc(C(F)(F)F)cc3)[C@@H](C)C2)cn1 [Example 11, (2S)-2-Methyl-4-[(6-methyl-3-pyridinyl)carbonyl]-1-{[4-(trifluoromethyl)phenyl]sulfonyl}piperazine formic acid salt]
20 | ≥ 31.6 | Cc1cncc(C(=O)N2CCN(S(=O)(=O)c3ccc(C(F)(F)F)cc3)C[C@@H]2C)c1 [Example 16, (2S)-2-Methyl-1-[(5-methyl-3-pyridinyl)carbonyl]-4-{[4-(trifluoromethyl)phenyl]sulfonyl}piperazine]
21 | ≥ 31.6 | Cc1ncccc1C(=O)N1CCN(S(=O)(=O)c2ccc(C(F)(F)F)cc2)[C@H](C)C1 [Example 10, (2R)-2-Methyl-4-[(2-methyl-3-pyridinyl)carbonyl]-1-{[4-(trifluoromethyl)phenyl]sulfonyl}piperazine formic acid salt]
22 | ≥ 31.6 | Cc1ncccc1C(=O)N1CCN(S(=O)(=O)c2ccc(C(F)(F)F)cc2)C[C@@H]1C [Example 2, (2S)-2-Methyl-1-[(2-methyl-3-pyridinyl)carbonyl]-4-{[4-(trifluoromethyl)phenyl]sulfonyl}piperazine hydrochloride]
23 | ≥ 31.6 | Cc1ncccc1C(=O)N1CCN(S(=O)(=O)c2ccc(C(F)(F)F)cc2)CC1 [Example 5, 1-[(2-Methyl-3-pyridinyl)carbonyl]-4-{[4-(trifluoromethyl)phenyl]sulfonyl}piperazine]
24 | ≥ 31.6 | Cc1ccc(C(=O)N2CCN(S(=O)(=O)c3ccc(C(F)(F)F)cc3)[C@H](C)C2)cn1 [Example 9, (2R)-2-Methyl-4-[(6-methyl-3-pyridinyl)carbonyl]-1-{[4-(trifluoromethyl)phenyl]sulfonyl}piperazine formic acid salt]
25 | ≥ 10 | Cc1cc(N2CCOCC2)ncc1C(=O)N1CCN(S(=O)(=O)c2ccc(C(F)(F)F)cc2)C[C@@H]1C [Example 47, 4-{4-Methyl-5-[((2S)-2-methyl-4-{[4-(trifluoromethyl)phenyl]sulfonyl}-1-piperazinyl)carbonyl]-2-pyridinyl}morpholine hydrochloride]
